Results as given in ChEMBL document CHEMBL5252528, “Transient Receptor Potential Melastatin 8 Channel (TRPM8) Modulation: Cool Entryway for Treating Pain and Cancer” (J Med Chem, 2016).

Tests used:
[1] = molecular target: T1, Transient receptor potential cation channel subfamily M member 8 (Homo sapiens, UniProt Q7Z2W7); assay: Antagonist activity at TRPM8 (unknown origin)
[2] = molecular target: T1, Transient receptor potential cation channel subfamily M member 8; assay: Antagonist activity at human TRMP8 incubated for 24 hrs; format: cell-based, HEK293
[3] = molecular target: T1, Transient receptor potential cation channel subfamily M member 8; assay: […] activity at human TRMP8 expressed in HEK293 cells incubated for 24 hrs by HTS assay; format: cell-based
[4] = molecular target: T1, Transient receptor potential cation channel subfamily M member 8; assay: Agonist activity at TRPM8 (unknown origin) by fluorometric imaging plate reader analysis
[5] = molecular target: T1, Transient receptor potential cation channel subfamily M member 8; assay: Antagonist activity at human TRPM8 expressed in HEK293 cells assessed as reduction in menthol induced calcium influx; format: cell-based
[6] = molecular target: T1, Transient receptor potential cation channel subfamily M member 8; assay: Antagonist activity at human TRPM8 expressed in CHO cells; format: cell-based
Rattus norvegicus [7] = assay: Antihypersensitivity activity at rat assessed as reduction in wet-dog shakes at 1 mg/kg relative to control; format: functional
Rattus norvegicus [8] = assay: Reversal of icilin induced behaviours in rat at 10 mg/kg, po relative to control; format: functional
Rattus norvegicus [9] = organism: Rattus norvegicus; assay: Antihypersensitivity activity at rat assessed as reduction in pain relative to control; format: functional
Rattus norvegicus [10] = assay: Reversal of icilin induced behaviours in rat at 30 mg/kg, po relative to control; format: functional
[11] = molecular target: Transient receptor potential cation channel subfamily M member 8 (Rattus norvegicus) (UniProt Q8R455); assay: In vivo antagonist activity at TRPM8 in po dosed rat assessed as shaking behaviour; format: functional, organism-based
Sequence of Transient receptor potential cation channel subfamily M member 8 (Rattus norvegicus) (Q8R455 whole entry, looked up): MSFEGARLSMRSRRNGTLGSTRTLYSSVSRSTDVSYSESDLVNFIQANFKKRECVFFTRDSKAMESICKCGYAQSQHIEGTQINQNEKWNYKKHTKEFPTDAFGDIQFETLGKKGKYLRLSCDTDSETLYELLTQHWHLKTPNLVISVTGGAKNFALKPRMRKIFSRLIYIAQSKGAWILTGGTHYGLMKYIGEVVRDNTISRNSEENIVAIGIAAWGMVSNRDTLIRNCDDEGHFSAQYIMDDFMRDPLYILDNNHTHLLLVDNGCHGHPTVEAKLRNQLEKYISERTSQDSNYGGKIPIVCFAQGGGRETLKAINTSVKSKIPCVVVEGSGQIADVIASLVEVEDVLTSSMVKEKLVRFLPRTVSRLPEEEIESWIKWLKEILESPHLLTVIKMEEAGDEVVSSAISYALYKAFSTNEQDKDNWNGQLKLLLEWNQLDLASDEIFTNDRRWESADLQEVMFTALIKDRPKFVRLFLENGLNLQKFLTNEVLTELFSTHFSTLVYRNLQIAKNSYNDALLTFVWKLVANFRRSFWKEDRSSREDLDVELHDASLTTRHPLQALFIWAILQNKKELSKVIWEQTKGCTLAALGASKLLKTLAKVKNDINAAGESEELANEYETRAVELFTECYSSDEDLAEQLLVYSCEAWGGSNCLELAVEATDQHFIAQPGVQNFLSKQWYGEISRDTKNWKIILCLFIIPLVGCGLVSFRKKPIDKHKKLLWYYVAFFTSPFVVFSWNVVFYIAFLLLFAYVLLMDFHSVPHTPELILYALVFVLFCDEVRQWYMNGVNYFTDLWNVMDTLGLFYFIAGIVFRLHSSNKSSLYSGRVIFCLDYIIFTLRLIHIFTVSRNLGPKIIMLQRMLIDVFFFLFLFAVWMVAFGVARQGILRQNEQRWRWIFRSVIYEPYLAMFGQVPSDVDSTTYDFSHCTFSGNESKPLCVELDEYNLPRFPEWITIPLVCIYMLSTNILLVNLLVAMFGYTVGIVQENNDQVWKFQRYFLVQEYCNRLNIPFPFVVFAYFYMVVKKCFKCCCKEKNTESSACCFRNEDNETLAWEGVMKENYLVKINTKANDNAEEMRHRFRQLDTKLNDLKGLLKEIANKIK

[12] = molecular target: T1, Transient receptor potential cation channel subfamily M member 8; assay: Antagonist activity at TRPM8 (unknown origin) by fluorescence based assay
[13] = molecular target: T1, Transient receptor potential cation channel subfamily M member 8; assay: Agonist activity at TRPM8 (unknown origin)
[14] = molecular target: Transient receptor potential cation channel subfamily A member 1 (Homo sapiens, UniProt O75762); assay: Agonist activity at TRPA1 (unknown origin)
Sequence of Transient receptor potential cation channel subfamily A member 1 (O75762 whole entry): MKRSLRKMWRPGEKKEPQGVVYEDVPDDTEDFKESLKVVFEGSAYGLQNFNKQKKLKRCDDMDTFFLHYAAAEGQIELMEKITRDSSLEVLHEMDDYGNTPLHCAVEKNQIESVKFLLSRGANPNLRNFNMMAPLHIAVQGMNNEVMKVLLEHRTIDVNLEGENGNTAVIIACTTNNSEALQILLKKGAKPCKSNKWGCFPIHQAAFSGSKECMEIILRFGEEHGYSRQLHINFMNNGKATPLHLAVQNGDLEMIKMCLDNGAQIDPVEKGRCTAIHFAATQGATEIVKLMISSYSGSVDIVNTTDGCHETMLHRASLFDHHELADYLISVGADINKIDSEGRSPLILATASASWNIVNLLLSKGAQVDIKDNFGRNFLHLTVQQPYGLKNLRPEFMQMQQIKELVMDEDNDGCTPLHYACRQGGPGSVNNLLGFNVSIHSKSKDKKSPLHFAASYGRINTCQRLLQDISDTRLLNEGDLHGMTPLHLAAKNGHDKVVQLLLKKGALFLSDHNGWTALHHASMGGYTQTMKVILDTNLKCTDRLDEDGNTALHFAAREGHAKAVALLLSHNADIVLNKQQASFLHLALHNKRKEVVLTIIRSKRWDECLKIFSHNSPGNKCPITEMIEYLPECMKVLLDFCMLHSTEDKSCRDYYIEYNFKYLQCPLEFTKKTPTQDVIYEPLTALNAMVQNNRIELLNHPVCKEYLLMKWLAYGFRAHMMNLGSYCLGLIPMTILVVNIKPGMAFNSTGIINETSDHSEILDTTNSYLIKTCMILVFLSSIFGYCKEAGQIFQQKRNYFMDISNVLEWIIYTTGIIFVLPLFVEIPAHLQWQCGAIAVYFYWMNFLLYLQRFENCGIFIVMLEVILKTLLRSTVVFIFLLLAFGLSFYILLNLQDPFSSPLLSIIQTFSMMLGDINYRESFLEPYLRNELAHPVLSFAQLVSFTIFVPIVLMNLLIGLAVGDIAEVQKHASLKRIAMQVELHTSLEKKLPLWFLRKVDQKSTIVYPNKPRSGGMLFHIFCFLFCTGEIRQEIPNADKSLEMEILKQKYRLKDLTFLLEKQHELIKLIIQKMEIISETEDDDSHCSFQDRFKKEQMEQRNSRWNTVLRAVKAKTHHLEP

[15] = molecular target: T1, Transient receptor potential cation channel subfamily M member 8; assay: Agonist activity at human TRMP8 expressed in HEK293 cells; format: cell-based
Rattus norvegicus [16] = assay: Antihypersensitivity activity at icilin induced rat assessed as reduction in wet-dog shakes at 3 mg/kg relative to control; format: functional
[17] = molecular target: T1, Transient receptor potential cation channel subfamily M member 8; assay: […] activity at human TRMP8 expressed in HEK293 cells measured after 24 hrs of menthol activation by patch clamp assay; format: cell-based
[18] = molecular target: T1, Transient receptor potential cation channel subfamily M member 8; assay: […] activity at human TRMP8 expressed in HEK293 cells measured after 24 hrs of cold activation by patch clamp assay; format: cell-based
Rattus norvegicus [19] = assay: Antihypersensitivity activity at carrageenan induced rat assessed as reduction in heat hypersensitivity at 30 mg/kg, po relative to control; format: functional
Rattus norvegicus [20] = assay: Antihypersensitivity activity at cfa induced rat assessed as thermal and mechanical hyperalgesia at 10 mg/kg, po relative to control; format: functional
Rattus norvegicus [21] = organism: Rattus norvegicus; assay: Antihypersensitivity activity at rat assessed as reduction in wet-dog shakes relative to control; format: functional
Rattus norvegicus [22] = organism: Rattus norvegicus; assay: Antihypersensitivity activity at rat assessed as cardiovascular pressor responses relative to control; format: functional
Rattus norvegicus [23] = assay: Antinociceptive activity at rat assessed as reduction in pain at 30 mg/kg, po relative to control; format: functional
[24] = molecular target: Transient receptor potential cation channel subfamily M member 8 (Mus musculus, UniProt Q8R4D5); assay: Agonist activity at mouse TRMP8 expressed in HEK293 cells; format: cell-based
Sequence of Transient receptor potential cation channel subfamily M member 8 (Mus musculus, UniProt Q8R4D5) (Q8R4D5 whole entry): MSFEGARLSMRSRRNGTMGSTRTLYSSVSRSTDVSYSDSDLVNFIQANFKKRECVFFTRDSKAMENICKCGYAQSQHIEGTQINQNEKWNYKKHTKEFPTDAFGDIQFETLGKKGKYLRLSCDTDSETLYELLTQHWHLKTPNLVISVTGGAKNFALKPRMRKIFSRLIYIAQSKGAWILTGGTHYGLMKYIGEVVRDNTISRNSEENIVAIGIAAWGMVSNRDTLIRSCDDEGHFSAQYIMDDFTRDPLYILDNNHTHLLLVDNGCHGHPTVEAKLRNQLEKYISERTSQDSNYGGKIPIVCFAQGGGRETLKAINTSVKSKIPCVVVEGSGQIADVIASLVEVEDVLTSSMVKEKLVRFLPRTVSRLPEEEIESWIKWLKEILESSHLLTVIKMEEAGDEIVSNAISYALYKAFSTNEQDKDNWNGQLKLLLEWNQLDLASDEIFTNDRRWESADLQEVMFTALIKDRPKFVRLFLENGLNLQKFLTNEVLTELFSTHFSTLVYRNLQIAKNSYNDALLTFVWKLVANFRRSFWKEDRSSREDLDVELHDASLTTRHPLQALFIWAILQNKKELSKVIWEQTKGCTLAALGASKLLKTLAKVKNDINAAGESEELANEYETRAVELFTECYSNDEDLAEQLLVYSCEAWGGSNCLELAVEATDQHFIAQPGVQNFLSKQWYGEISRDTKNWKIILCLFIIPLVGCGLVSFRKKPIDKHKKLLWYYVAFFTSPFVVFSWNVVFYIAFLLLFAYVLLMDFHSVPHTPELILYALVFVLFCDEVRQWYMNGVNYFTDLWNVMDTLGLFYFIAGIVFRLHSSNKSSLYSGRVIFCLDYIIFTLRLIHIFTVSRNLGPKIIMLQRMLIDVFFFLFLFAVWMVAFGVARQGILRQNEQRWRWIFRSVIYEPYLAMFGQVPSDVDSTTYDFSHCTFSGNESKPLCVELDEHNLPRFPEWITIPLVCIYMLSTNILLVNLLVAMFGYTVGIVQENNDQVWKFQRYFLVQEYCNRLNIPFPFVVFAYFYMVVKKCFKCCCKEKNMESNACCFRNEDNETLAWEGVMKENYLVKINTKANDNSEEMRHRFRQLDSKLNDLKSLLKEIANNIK

[25] = molecular target: Transient receptor potential cation channel subfamily V member 1 (Homo sapiens, UniProt Q8NER1); assay: Modulation of TRPV1 (unknown origin) by fluorometric imaging plate reader analysis
[26] = molecular target: T1, Transient receptor potential cation channel subfamily M member 8; assay: Antagonist activity at human TRPM8 expressed in […] induced HEK293 cells; format: cell-based
[27] = molecular target: T1, Transient receptor potential cation channel subfamily M member 8; assay: Antagonist activity at human TRPM8 expressed in HEK293 cells; format: cell-based
[28] = molecular target: T1, Transient receptor potential cation channel subfamily M member 8; assay: Agonist activity at human recombinant TRPM8

T1 sequence (Q7Z2W7 whole entry): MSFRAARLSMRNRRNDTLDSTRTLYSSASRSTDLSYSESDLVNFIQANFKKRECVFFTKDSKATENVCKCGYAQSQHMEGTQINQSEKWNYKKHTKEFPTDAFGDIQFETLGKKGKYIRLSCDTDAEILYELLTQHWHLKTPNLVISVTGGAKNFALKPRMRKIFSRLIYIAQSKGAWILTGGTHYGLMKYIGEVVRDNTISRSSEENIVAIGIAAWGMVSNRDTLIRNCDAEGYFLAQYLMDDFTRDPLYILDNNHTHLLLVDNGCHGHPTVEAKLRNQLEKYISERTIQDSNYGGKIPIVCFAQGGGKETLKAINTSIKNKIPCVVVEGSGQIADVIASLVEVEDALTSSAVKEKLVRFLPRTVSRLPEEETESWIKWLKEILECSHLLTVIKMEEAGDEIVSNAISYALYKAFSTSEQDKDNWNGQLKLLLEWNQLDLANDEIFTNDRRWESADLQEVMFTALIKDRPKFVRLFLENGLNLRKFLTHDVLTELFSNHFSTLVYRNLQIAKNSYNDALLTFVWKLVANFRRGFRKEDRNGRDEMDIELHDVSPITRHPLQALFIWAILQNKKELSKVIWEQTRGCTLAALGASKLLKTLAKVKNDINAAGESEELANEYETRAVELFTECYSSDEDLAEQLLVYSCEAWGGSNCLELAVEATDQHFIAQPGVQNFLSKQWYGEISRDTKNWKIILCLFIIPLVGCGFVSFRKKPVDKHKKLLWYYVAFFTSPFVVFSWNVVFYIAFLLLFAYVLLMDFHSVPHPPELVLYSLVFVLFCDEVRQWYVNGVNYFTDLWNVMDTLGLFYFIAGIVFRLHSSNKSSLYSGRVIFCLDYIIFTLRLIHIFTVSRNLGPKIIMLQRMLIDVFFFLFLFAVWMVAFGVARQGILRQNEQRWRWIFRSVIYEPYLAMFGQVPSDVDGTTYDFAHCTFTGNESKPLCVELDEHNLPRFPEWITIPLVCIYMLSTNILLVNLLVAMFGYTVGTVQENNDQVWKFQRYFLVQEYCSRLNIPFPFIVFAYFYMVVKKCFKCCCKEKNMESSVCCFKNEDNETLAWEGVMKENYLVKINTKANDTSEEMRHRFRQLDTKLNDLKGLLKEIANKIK

SMILES: Clc1ccc(COC(Cn2ccnc2)c2ccc(Cl)cc2Cl)cc1 (stereo not drawn) [ECONAZOLE]
- IC50 [1]: 0.42 µM

SMILES: COc1cc(CN(CCN)c2nc3ccccc3s2)ccc1OCc1ccccc1F
- IC50 [1]: < 0.02 µM

SMILES: C=C(C)[C@@H]1CCC(C)=C[C@H]1c1c(O)cc(CCCCC)cc1O [CANNABIDIOL]
- IC50 [1]: 0.06 µM

SMILES: COc1nc(-c2ccccc2Cl)cc2nc(-c3c(Cl)c(C(C)(C)C)nn3C)[nH]c12
- IC50 [2]: 0.0035 µM

SMILES: Cc1c(N(Cc2ccc(OC(F)(F)F)cc2)S(=O)(=O)CCN2CCC(c3ccccc3)CC2)sc2ccccc12
- IC50 [3]: 0.026 µM

SMILES: COc1ccc(NC(=O)[C@@H]2C[C@H](C)CC[C@H]2C(C)C)c(NC(=O)[C@@H](C)N)c1
- EC50 [4]: 3 µM

SMILES: C=C(C)[C@]12C[C@@H](C)[C@@]34OC(Cc5ccccc5)(O[C@@H]1C3C=C(COC(=O)Cc1ccc(O)c(OC)c1)C[C@]1(O)C(=O)C(C)=C[C@@H]41)O2 (stereo partly drawn)
- IC50 [1]: 0.15 µM

SMILES: CCCCC/C=C/C/C=C\C/C=C/C/C=C/CCCC(=O)NCCO
- IC50 [1]: 0.15 µM

SMILES: COc1ccc2c(c1)n(CCN)c(=O)n2C(=O)[C@@H]1C[C@H](C)CC[C@H]1C(C)C
- EC50 [4]: < 5 µM

SMILES: Cc1ccc2nc(C(F)(F)F)n(-c3ccc(C(=O)CN4C(=O)NC5(CCC(F)(F)CC5)C4=O)cc3)c2n1
- IC50 [5]: < 0.01 µM

SMILES: COc1cc(CNC(=O)CCCC/C=C/C(C)C)ccc1O [CAPSAICIN]
- IC50 [1]: 1 µM

SMILES: CCn1c(N(Cc2ccc(C(F)(F)F)cc2)S(=O)(=O)c2ccccc2)nc2cc(F)ccc21
- IC50 [2]: 0.006 µM

SMILES: O=C(N[C@]1(c2ccc(OC(F)(F)F)cc2)CCOc2cccnc21)c1ccc2[nH]cnc2c1
- IC50 [6]: 0.004 µM
- inhibition in vivo at 1 mg/kg (Rattus norvegicus [7]): > 90%

SMILES: CC(C)[C@@H]1CC[C@@H](C)C[C@H]1OC(=O)[C@@H](C)O
- EC50 [4]: 160 µM

SMILES: FC(F)(F)c1ccccc1-c1cc(C(F)(F)F)c2[nH]c(C3=NOC4(CCCCC4)C3)nc2c1
- Activity (Rattus norvegicus [8]): 98%
- inhibition (INH) (Rattus norvegicus [9]): 83%

SMILES: COc1ccc(CCCOC(Cn2ccnc2)c2ccc(OC)cc2)cc1 (stereo not drawn)
- IC50 [1]: 0.8 µM

SMILES: CC(C)OP(=O)(OC(C)C)[C@@H](Cc1ccc(F)c(C(F)(F)F)c1)c1sc2ccccc2c1Br
- IC50 [3]: 0.009 µM
- Activity (Rattus norvegicus [10]): 80%

SMILES: CCCCCc1cc2c(c(O)c1C(=O)O)[C@@H]1C=C(C)CC[C@H]1C(C)(C)O2 [DELTA9-TETRAHYDROCANNABINOLIC ACID A]
- IC50 [1]: 0.15 µM

SMILES: Clc1ccccc1C(c1ccccc1)(c1ccccc1)n1ccnc1 [CLOTRIMAZOLE]
- IC50 [1]: 8 µM

SMILES: O=C(O)c1ccc(S(=O)(=O)N(Cc2ccc(OC(F)(F)F)cc2)c2ncc(C(F)(F)F)cc2Cl)cc1
- ED50 [11]: 0.65 mg/kg

SMILES: C[C@H](N)[C@H](O)C/C=C\C/C=C\C/C=C\C/C=C\C/C=C\C/C=C\CCCCCC[C@@H](O)[C@H](C)N
- IC50 [1]: 6 µM

SMILES: COC(=O)C(NCc1ccccc1)[C@H](Cc1ccccc1)NC(=O)OCc1ccccc1 (stereo partly drawn)
- IC50 [12]: 3 µM

SMILES: Cc1c(N(Cc2ccc(F)c(C(F)(F)F)c2)S(=O)(=O)N2CCC(C(=O)O)CC2)sc2ccccc12
- IC50 [3]: 0.026 µM

SMILES: Cc1cc(NC(C)C)no1
- EC50 [13]: 0.1 µM

SMILES: Clc1ccc(-c2nnc(N3CCOCC3)n2-c2ccccc2)cc1
- EC50 [13]: 45 µM
- EC50 [14]: 4 µM

SMILES: C=CCc1ccc(O)c(OC)c1 [EUGENOL]
- EC50 [15]: 66 µM

SMILES: COc1ccccc1C(=O)N([C@H]1CCc2c(F)cc(Cl)cc21)[C@@H](C(N)=O)c1ccccc1
- inhibition in vivo at 3 mg/kg (Rattus norvegicus [16]): 100%

SMILES: Cc1c(N(Cc2ccc(F)c(C(F)(F)F)c2)S(=O)(=O)c2ccc(C(=O)O)cc2)sc2ccccc12
- IC50 [17]: 0.0011 µM
- IC50 [18]: 0.0023 µM
- inhibition in vivo at 30 mg/kg (Rattus norvegicus [19]): 64%
- Activity (Rattus norvegicus [20]): 91%
- ED50 (Rattus norvegicus [21]): 2.5 mg/kg
- inhibition (INH) (Rattus norvegicus [22]): 75%
- inhibition in vivo at 30 mg/kg (Rattus norvegicus [23]): 69%

SMILES: CC12CCC(CC1)C(C)(C)O2 [EUCALYPTOL]
- EC50 [24]: 7000 µM

SMILES: CCCCC/C=C/C/C=C\C/C=C/C/C=C/CCCC(=O)NCCc1ccc(O)c(O)c1
- IC50 [1]: 0.7 µM

SMILES: c1ccc(CN(CCc2c[nH]c3ccccc23)Cc2ccccc2)cc1
- IC50 [25]: 0.035 µM
- IC50 [1]: 0.8 µM

SMILES: CC(C)=CCC/C(C)=C/CO [GERANIOL]
- EC50 [24]: 6000 µM

SMILES: CCn1/c(=N/S(=O)(=O)c2ccccc2)n(Cc2ccc(C(F)(F)F)c(F)c2)c2cc(C(F)(F)F)ccc21
- IC50 [2]: 0.005 µM

SMILES: CCCCCc1cc(O)c(C/C=C(\C)CCC=C(C)C)c(O)c1 [CANNABIGEROL]
- IC50 [1]: 0.16 µM

SMILES: CC(C)[C@@H]1CC[C@@H](C)C[C@H]1C(=O)NCC(NC(=O)[C@H](C)N)c1ccccc1 (stereo partly drawn)
- EC50 [4]: < 5 µM

SMILES: C=CCc1cc(OC)c(OC(C)C(O[C@@H]2C[C@H](C)CC[C@H]2C(C)C)c2ccc(OC)c(OC)c2)c(OC)c1 (stereo partly drawn)
- EC50 [4]: 10 µM

SMILES: COc1ccc(NC(=O)[C@@H]2C[C@H](C)CC[C@H]2C(C)C)cc1 [ACOLTREMON]
- EC50 [4]: 12 µM

SMILES: NCCc1c[nH]c2ccc(Oc3ccccc3)cc12
- IC50 [26]: 0.34 µM

SMILES: COc1cc(CN(CCN)C(=O)NC(C)c2ccccc2)ccc1OCc1ccccc1 (stereo not drawn)
- IC50 [27]: 0.05 nM

SMILES: COc1cnc(-c2ccccn2)nc1CC(C)C
- EC50 [28]: 0.1 µM

SMILES: CCCCCc1cc(O)c2c(c1)OC(C)(C)[C@@H]1CCC(C)=C[C@@H]21 [DRONABINOL]
- IC50 [1]: 0.16 µM

SMILES: CC(C)[C@@H]1CC[C@@H](C)C[C@H]1C(=O)Nc1ccc(S(=O)(=O)Nc2ncccn2)cc1
- EC50 [4]: 4 µM
